Test system: CNTNAP2−/− mutant mice
Experiment: Elevated plus maze test, CNTNAP2-/- mutant mice (M2)
Type: in vivo, mouse
Details: 7-NI i.p. 80 mg/kg daily for 10 days, vs untreated mutant mice
Method: Behavioral testing started after 2 hours of treatment.
Elevated plus maze test (see, FIG. 4C): The elevated plus-maze consisted of four arms (30×5 cm), two open, and the other two closed. The platform was made of white plexiglass. The apparatus was elevated 45 cm above the floor. The test, described in, was initiated by placing the mouse on the central platform of the maze, facing one of the open arms, and letting it move freely. Each session lasted 5 min. The time spent in the close and open arms was recorded.
In another set of tests, the potential effects of inhibiting NO on the cognitive functions was assayed on an additional mouse model of ASD-CNTNAP2−/− mutant mice. The mice were divided into three testing groups: WT mice, CNTNAP2−/− mutant mice (M2), and mutant mice that were administered with 7-NI (M2+7NI).

SMILES: O=[N+]([O-])c1cccc2cn[nH]c12 [7-NI, 7-nitroindazole]
- anxiety like behaviors (elevated plus maze): exhibited less anxiety like behaviors
